Reference: a melting point compilation (Tetko et al.; mined from patent text by program, amines drawn as free bases though some values may be those of a salt)

| Compound | melting point |
| --- | --- |
| Cc1cc2cc(CN3CCCC3)cnc2cc1NC(=O)c1ccc(-c2ccc(F)cc2)cc1 | 182 to 187 °C |
| COc1ccc(S(=O)(=O)C2(C(=O)NO)CCCC2)cc1 | 89 to 91 °C |
| COc1ccc(CNc2nc(NCCCc3cccc(C(C)=O)c3)nc3ncccc23)cc1OC | 152 to 155 °C |
| CC1(C)CCC(C)(C)c2cc(C(=O)Nc3ccc(I)cc3)ccc21 | 224 °C |
| O=C1C(=CNCCO)Cc2cc(Cl)ccc21 | 164 to 166 °C |
| COc1ccc(CNc2nnc(Cl)c3ccc([N+](=O)[O-])cc23)cc1Cl | 217 to 218 °C |
| CS(=O)(=O)c1ccc(N2CCC3(CC2)OCCO3)cc1 | 192 to 194 °C |
| CN1CCN=C1N1CCNCC1 | 115 to 125 °C |
| NC(=CC(=O)N1CCn2c(nnc2C(F)(F)F)C1)Cc1cc(F)c(F)cc1F | 271 °C |
| CN1C(=O)CN(CCC(=O)O)C1=O | 109 °C |
| NC(=O)Nc1ccc(N2CCN(c3ccncc3)CC2)cc1 | > 250 °C |
| CCCC1(CC)Cc2cc(OCC(=O)O)c(Cl)c(Cl)c2C1=O (stereo unspecified) | 126 °C |
| C=CCC(C)(C)C(NC(=O)c1ccc(Cl)cc1)Nc1c(Nc2cccnc2)c(=O)c1=O (stereo unspecified) | 242 to 243 °C |
| O=C(c1c[nH]c(=O)[nH]1)c1ccco1 | 318 to 321 °C |
| COc1cc2c(cc1C(=O)O)nnn2C(C)=O | 208 to 212 °C |
| c1cn(CCCc2ccc(OCc3coc(-c4cc5c(s4)CCCC5)n3)cc2)cn1 | 83 to 84 °C |
| CCCc1nn(C)c(C(N)=O)c1NC(=O)c1cc(S(=O)(=O)N2CCN(C)CC2)ccc1OCC | 204 to 206 °C |
| COc1cc(OC)nc(NC(=O)NS(=O)(=O)c2ccccc2CCOC(C)=O)n1 | 160 to 162 °C |
| CCOC(=O)c1cc(CC(C(=O)OCC)C(=O)OCC)c2ccccn2c1=O | 105 to 108 °C |
| COC(=O)[C@H](Cc1cccc(Br)c1)NC(=O)OC(C)(C)C | 60 to 61 °C |
| CCCCOCCOc1ccc(-c2ccc3c(c2)C=C(C(=O)Nc2ccc(C(O)c4ccccn4)cc2)CCS3(=O)=O)cc1 (stereo unspecified) | 173 to 174 °C |
| FC(F)(F)c1cc(Br)c2nc(N3CCN(c4ncc(Cl)cc4Cl)CC3)[nH]c2c1 | 176 to 179 °C |

| Compound | melting point |
| --- | --- |
| CCOC(=O)c1cc(=O)c2cc3c(=O)cc(C(=O)OCC)n(CC)c3cc2o1 | 193 to 194 °C |
| COc1ccc(-c2c(Cl)c(CN3C(=O)CCC3=O)nc3sc4c(c23)CC(C)(C)C(=O)C4)cc1 | 222 to 224 °C |
| CS(=O)(=O)c1cc(N)c([N+](=O)[O-])cc1N | 221 °C |
| NCc1ccc(O)cc1 | 104 °C |
| CCCCCCCCCCCCCCC(NC(C)=O)(C(=O)OCC)C(=O)OCC | 58.5 to 60.5 °C |
| CC(C)[C@@H]1CC[C@@H](C)C[C@H]1OC(=O)N1C(=O)O[C@@H](C(F)(F)F)[C@@H]1C(C)C | 80 to 82 °C |
| CC(C)(C)OC(=O)NS(=O)(=O)N1CCC(F)(F)CC1 | 82 to 83 °C |
| Cc1cc(C)nc(N(CCN(C)C)C(N)=O)c1 | 88 to 89 °C |
| O=C1NC(=O)C(=Cc2ccc([N+](=O)[O-])cc2)S1 | 272 to 273 °C |
| CC(=O)c1cc(C#N)c(=O)n(C=CN(C)C)c1 | 267 to 270 °C |
| COc1ccc(NC=O)c(C=O)c1 | 125 to 127 °C |
| COC(=O)CCCC=C(c1cc(C)c2oc(=O)n(C)c2c1)c1cc(C)c2oc(=O)n(C)c2c1 | 164 to 165 °C |
| CNC(=O)c1ccc(-c2ccc3nnn(C(C)(C)c4ccc5ncccc5c4)c3n2)cc1F | 171 to 173 °C |
| CCCCCCCCCCCCCCCCNC(=O)c1cc(OCCS(C)(=O)=O)c2ccccc2c1O | 107 to 109 °C |
| CCOC(=O)CCc1cccc(CNC(=O)C[C@H]2O[C@H](c3cccc(OC)c3OC)c3cc(Cl)ccc3N(CC(C)(C)CO)C2=O)c1 | 94 to 95 °C |
| Cc1cc(NC(=O)c2cnccn2)nc(C)c1Br | 206 °C |
| COc1ccc(C2(C#N)CCC(=O)CC2)cc1 | 77.5 to 79.5 °C |
| Cc1cc(Cl)c2[nH]nc(-c3ccc(Cl)cc3)c2n1 | 243 to 245 °C |
| Cc1nc(Sc2ccc(C(F)(F)F)cn2)sc1CC(=O)O | 113 to 114 °C |
| Cc1cccc(NC(=O)CS)c1 | 58 to 60 °C |
| CC(=O)C1(C)CCCS1(=O)=O (stereo unspecified) | 47 to 48 °C |
| Cn1nc(-c2cc(F)c([N+](=O)[O-])cc2F)c(Br)c1C(F)(F)F | 45.5 °C |

| Compound | melting point |
| --- | --- |
| Cc1ccc(-c2ccc(C)cc2[N+](=O)[O-])c([N+](=O)[O-])c1 | 138 to 141 °C |
| CCNC(=O)c1c(Cl)ccc(N)c1[Si](C)(C)C | 147 to 149 °C |
| COc1ccc(CCNC(=O)C(F)(F)F)cc1C=O | 105 to 106 °C |
| CCOC(=O)CC(=O)Nc1ccc(S)cc1 | 69 °C |
| CCC(C)C1C(=O)NC(=S)N1C(C)=O (stereo unspecified) | 132 to 133 °C |
| Nc1ccc(OC(F)F)cc1[N+](=O)[O-] | 68 to 70 °C |
| Cc1c(NC(=O)c2ccc(OC[C@@H]3CCCO3)cc2)ccc2c1cc(CNCC1CCOCC1)n2C | 166 to 167 °C |
| Nc1cc(N2CCOCC2)ccc1[N+](=O)[O-] | 177 to 178 °C |
| CNC(=O)NS(=O)(=O)c1cc2c(cc1OC)OC(C)(C)C(NC(=O)c1cc(Cl)ccc1OC)C2 (stereo unspecified) | 248 °C |
| C[C@@H](N1CCN(c2ccc(-n3cnn(Cc4ccc(OCC(F)(F)C(F)F)cc4)c3=O)cc2)CC1)[C@](O)(Cn1cncn1)c1ccc(F)cc1F | 83 to 85 °C |
| COc1cc(N)c(Cl)cc1C(=O)NCC1CN(CC2CCN(C(=O)N(C)C)CC2)CCO1 (stereo unspecified) | 179 to 180 °C |
| COC(=O)/C=C/c1ccc(OCc2oc(-c3ccc(C(F)(F)F)cc3)nc2C)cc1C | 124 to 126 °C |
| CN(C(=O)c1ccc(-n2cccn2)cc1)C1CCN(C(=O)OC(C)(C)C)CC1 | 164 to 166 °C |
| CCCc1nnc(-c2ccc(OC)cc2)s1 | 54 °C |
| COc1ccc([C@@H]2Sc3cc(Oc4ccc(F)cc4)ccc3N(CCN(C)C)C(=O)[C@@H]2OC(C)=O)cc1F | 128 to 132 °C |
| O=C(N[C@H]1CCC[C@@H](CN2CC=C(c3ccccc3)CC2)C1)c1ccccc1 | 200 to 204 °C |
| CC(C#CC1CC1)N(O)C(N)=O (stereo unspecified) | 142 to 143 °C |
| O=C1NC(=O)C(Cc2cc(Cl)ccc2[N+](=O)[O-])N1 (stereo unspecified) | 184 to 186 °C |
| CCOC(=O)Cc1ccc(C(=O)Cl)n1C | 52 to 54 °C |
| CCc1cc(C)nc2c(C)ccc(N)c12 | 60 to 62 °C |

Results, then the compound that gave them:

| melting point | Compound |
| --- | --- |
| 102 °C | C(=Cc1ccccc1)COc1ccc(C2OCCO2)cc1 |
| 126 to 127 °C | CN(C)CCNC(=O)c1cccc(-c2cccc3cc(Cc4cc(F)cc(Cl)c4)sc23)c1 |
| 181 °C | CCOC(=O)c1cc(-c2ccc(-c3ccco3)cc2)n(-c2ccc(S(C)(=O)=O)cc2)n1 |
| 159 to 161 °C | Cn1c(CO)c(-c2ccccc2)c2ccccc2c1=O |
| 128 to 130 °C | CCOc1nn(-c2ccc(C(F)(F)F)cn2)cc1CCCOc1ccc(CCC(=O)O)c(OCc2ccccc2)c1 |
| 194 to 195 °C | O=C(NCCO)c1cccc(-c2ncc3ccn(Cc4ccc(Cl)cc4Cl)c3n2)c1 |
| 116 to 123 °C | COC(=O)c1ccc2c(c1)Sc1ccccc1CC2Br (stereo unspecified) |
| 105 to 108 °C | CC1(C)CC(=NO)c2cc(OCc3ccccc3)ccc2O1 |
| 86 °C | CS(=O)(=O)Nc1cc2c(cc1Oc1ccccc1)C(=O)C(Sc1ccccc1)C2 (stereo unspecified) |
| 132 to 133 °C | N#Cc1cn(CCl)cc1-c1cccc(Cl)c1Cl |
| > 300 °C | CCCn1cc2c(C3C(=O)Nc4ccc(Br)cc43)ncnc2n1 (stereo unspecified) |
| 165 to 167 °C | Cc1cc(Cc2ccc(NS(C)(=O)=O)cc2F)n(C)c1C(=O)c1ccccc1 |
| 57 to 58 °C | Brc1ccc(N=NSc2ccccc2)c2ccccc12 |
| 191 to 193 °C | Cc1ccc(/C=C/C2=CCN(Cc3nc4ccccc4[nH]3)CC2)o1 |
| 110 to 112 °C | CC(=O)NC1CCN(c2cccc(Sc3ccccc3)n2)CC1 |
| 150 to 151 °C | CN(CCNc1ccc2ncc(-c3ccccc3)n2n1)C(=O)OC(C)(C)C |
| 93 to 103 °C | C[C@@H](n1ccn(-c2ccc(O)cc2)c1=O)[C@](O)(Cn1cncn1)c1ccc(F)cc1F |
| 220 to 223 °C | O=C(O)C(=O)Nc1cc(-c2ccc(-c3cccc4c3oc3ccccc34)cc2)cn(Cc2ccccc2)c1=O |
| 130 to 132 °C | NCCCCn1cnc(-c2ccccc2)c1 |

| melting point | Compound |
| --- | --- |
| 166 to 167 °C | NC(=NCCCc1c[nH]cn1)N(CCN(Cc1ccc(Cl)cc1)c1ccccn1)C(=O)c1ccccc1 |
| > 260 °C | Fc1cccc(F)c1CN[C@H]1CCCN[C@H]1c1ccccc1 (relative stereo) |
| 125 to 127 °C | Cc1ccc(N(c2ccc(C)c(C)c2)c2cccc3ccccc23)cc1C |
| 60 to 68 °C | COC(=O)c1cncn1C1c2ccccc2C2OC2C1(C)C (stereo unspecified) |
| 286 °C | O=C(NCc1ccc2c(c1)-c1[nH]nc(-c3ccsc3)c1C2)c1cccnc1 |
| 152 to 155 °C | N=C(NC=Cc1ccc([N+](=O)[O-])cc1)c1cccc([N+](=O)[O-])c1 |
| 122 to 124 °C | CCc1nc2c(NC(=O)C(C)C)nc3ccccc3c2n1CCCCNS(C)(=O)=O |
| 230 °C | Cc1cc(N)nc(CCc2nc3cc(-c4ccccc4)cnc3[nH]2)c1 |
| 130 to 133 °C | Cc1ccc(S(=O)(=O)OCC2Cc3cccc(-c4ccc(Cl)cc4)c3O2)cc1 (stereo unspecified) |
| 123 to 124 °C | CC(C)CCN1N=C(c2ccc(F)cc2)c2cc(Cl)ccc2CS1(=O)=O |
| 94 to 95 °C | O=C(CCl)N1CC(c2ccc(Cl)cc2)Sc2ccccc21 (stereo unspecified) |
| 232 to 233 °C | Nc1nc2c(c(Nc3ccc(F)c(Cl)c3)n1)-c1ccccc1C2 |
| 113 to 120 °C | C(=C\c1cc(/C=C/c2ccccc2OCc2ccccn2)[nH]n1)/c1ccc2cc[nH]c2c1 |
| 224 to 225 °C | Cc1sc2c(Br)c3ccccc3c(-c3cc(Br)c(OC(C)C(=O)O)c(Br)c3)c2c1C (stereo unspecified) |
| 86 to 87 °C | COC(=O)Cc1nc(-c2ccc3ccccc3c2)oc1C |
| 163 to 164 °C | CCCCC(CC)C(=O)NCCCCn1cnc2c(N)nc3ccccc3c21 (stereo unspecified) |
| 291 °C | CC1(C)C(=CC=C2C(=O)c3ccccc3C2=C(C#N)C#N)N2CCCc3cccc1c32 |
| 96 to 98 °C | COc1ccc(C2=C(Cl)C(=O)C2)cc1 |
